{
  "source": "paper PMC9944328",
  "about": "(Nature Communications, 2023)",
  "key": {"[1]": {"target": "T1, SSTR2 mutants (Homo sapiens, UniProt P30874, T194A)", "T1 construct": "The human full-length SSTRs and mutants were cloned into the pcDNA3.1+ vector; expressed in transfected cells; host or cells: HEK293 (ATCC, CRL-1573)", "T1 sequence (P30874 whole entry T194A)": "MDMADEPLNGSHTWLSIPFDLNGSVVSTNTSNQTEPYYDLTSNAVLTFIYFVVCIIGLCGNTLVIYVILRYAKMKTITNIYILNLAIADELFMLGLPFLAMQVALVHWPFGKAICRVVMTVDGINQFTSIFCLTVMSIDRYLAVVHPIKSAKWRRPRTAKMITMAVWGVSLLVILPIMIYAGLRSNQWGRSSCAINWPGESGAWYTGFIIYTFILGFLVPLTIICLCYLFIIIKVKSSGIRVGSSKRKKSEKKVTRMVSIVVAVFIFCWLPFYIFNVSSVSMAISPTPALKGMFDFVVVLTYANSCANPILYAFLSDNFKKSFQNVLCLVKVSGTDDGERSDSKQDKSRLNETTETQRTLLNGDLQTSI", "experiment": "SSTRs Gi-mediated cAMP inhibition, GloSensor, HEK293, 5 μM forskolin, 15 min room temperature (SSTR2 mutants)", "format": "cell-based", "set-up": "Best-fit Bottom, cAMP inhibition / Best-fit Top, cAMP inhibition / Span, cAMP inhibition / Bottom (best-fit value) / Top (best-fit value) / Span (best-fit value) / Span (best-fit) / Bottom (best-fit) / Top (best-fit) / Best-fit Bottom / Best-fit Top / Best-fit Span / Top / Span: scale not given here", "details": "T194A, best-fit, runs 1-3", "procedure,_shortened": "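GloSensor cAMP readout after 15 min room-temperature exposure to ligand together with 5 μM forskolin, following 40 min equilibration in HBSS with luciferin. Cells: HEK293 transiently expressing tagged human wild-type or mutant SSTR with the sensor; at least three independent experiments averaged.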"}, "[2]": {"target": "SSTR3 mutants (Homo sapiens, UniProt P32745, F296D)", "sequence (P32745 whole entry F296D)": "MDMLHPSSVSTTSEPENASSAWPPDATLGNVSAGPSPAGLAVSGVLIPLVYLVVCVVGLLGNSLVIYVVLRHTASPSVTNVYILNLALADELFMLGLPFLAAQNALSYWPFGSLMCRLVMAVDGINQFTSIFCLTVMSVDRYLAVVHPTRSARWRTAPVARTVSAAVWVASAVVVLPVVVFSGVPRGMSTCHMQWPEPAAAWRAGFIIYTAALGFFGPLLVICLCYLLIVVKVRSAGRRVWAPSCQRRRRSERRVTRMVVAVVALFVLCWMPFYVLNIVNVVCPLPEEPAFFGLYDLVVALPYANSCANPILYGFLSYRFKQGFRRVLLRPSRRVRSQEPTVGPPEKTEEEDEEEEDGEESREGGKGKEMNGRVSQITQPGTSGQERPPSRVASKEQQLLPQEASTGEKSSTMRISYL", "experiment": "SSTRs Gi-mediated cAMP inhibition, GloSensor, HEK293 (SSTR3 mutants)", "format": "cell-based", "set-up": "Bottom / Top / Span / Top (best-fit): unit not given here", "procedure": "(§1) The levels of the intracellular 3′, 5′-cyclic AMP (cAMP) were measured by the GloSensor cAMP assay (Promega) as described in the previous studies[28],[41] which has been widely used. The human full-length SSTRs and mutants were cloned into the pcDNA3.1+ vector with a HA signal sequence followed by a Flag tag at the N-terminus. […] Cells were then co-transfected with SSTR wild-type or mutants and GloSensor plasmids. After 24 h of transfection, the cells were dissociated with TrypLE™ Express Enzyme (1X) (Thermo Fisher Scientific) and collected by centrifugation at 500 × g for 5 min. Then the collected cells were suspended in Hank’s balanced salt solution [HBSS (Thermo Fisher Scientific)] supplemented with […] potassium salt solution (YEASEN), and then the suspension cells were seeded into 96-well plates with 90 μl/well. After incubating at room temperature for 40 min, 5 μM forskolin and ligands diluted in HBSS were added to each well and the plates were incubated at room temperature for 15 min. […] signals were measured using the Synergy H1 microplate reader (BioTek) and the data presented are means of at least three independent experiments."}, "[3]": {"target": "T2, SSTR3 mutants (Homo sapiens, UniProt P32745, M193I)", "T2 construct": "The human full-length SSTRs and mutants were cloned into the pcDNA3.1+ vector; expressed in transfected cells; host or cells: HEK293 (ATCC, CRL-1573)", "T2 sequence (P32745 whole entry M193I)": "as the sequence (P32745 whole entry F296D) above, with M193I, D296F counted along it", "experiment": "SSTRs Gi-mediated cAMP inhibition, GloSensor, HEK293 (SSTR3 mutants)", "format": "cell-based", "set-up": "Bottom / Top / Span / Top (best-fit): unit not given here", "procedure": "as §1"}, "[4]": {"target": "SSTR3 mutants (Homo sapiens, UniProt P32745, N104V)", "sequence (P32745 whole entry N104V)": "as the sequence (P32745 whole entry F296D) above, with N104V, D296F counted along it", "experiment": "SSTRs Gi-mediated cAMP inhibition, GloSensor, HEK293 (SSTR3 mutants)", "format": "cell-based", "set-up": "Bottom / Top / Span / Top (best-fit): unit not given here", "details": "for Top: best-fit", "procedure": "as §1"}, "[5]": {"tested_on": "SSTR3 mutants", "experiment": "SSTRs Gi-mediated cAMP inhibition, GloSensor, HEK293 (SSTR3 mutants)", "format": "cell-based, human", "set-up": "Bottom / Top / Span / Top (best-fit): unit not given here", "details": "H192(45.51)T and N101(2.64)V in SSTR3", "procedure": "as §1"}, "[6]": {"target": "SSTR2 mutants (Homo sapiens, UniProt P30874, I284A)", "sequence (P30874 whole entry I284A)": "as the sequence (P30874 whole entry T194A) above, with A194T, I284A counted along it", "experiment": "SSTRs Gi-mediated cAMP inhibition, GloSensor, HEK293, 5 μM forskolin, 15 min room temperature (SSTR2 mutants)", "format": "cell-based", "set-up": "The human full-length SSTRs and mutants were cloned into the pcDNA3.1+ vector; expressed in transfected cells; host or cells: HEK293 (ATCC, CRL-1573); Best-fit Bottom, cAMP inhibition / Best-fit Top, cAMP inhibition / Span, cAMP inhibition / Bottom (best-fit value) / Top (best-fit value) / Span (best-fit value) / Span (best-fit) / Bottom (best-fit) / Top (best-fit) / Best-fit Bottom / Best-fit Top / Best-fit Span / Top / Span: scale not given here", "details": "I284A, best-fit, runs 1-3", "procedure": "The levels of the intracellular 3′, 5′-cyclic AMP (cAMP) were measured by the GloSensor cAMP assay (Promega) as described in the previous studies[28],[41] which has been widely used. The human full-length SSTRs and mutants were cloned into the pcDNA3.1+ vector with a HA signal sequence followed by a Flag tag at the N-terminus. HEK293 cells (ATCC, CRL-1573) were seeded into 6-well microplates at a density of 1.0 × 10^6 cells/well and cultured for 24 h at 37 °C with 5% CO2. Cells were then co-transfected with SSTR wild-type or mutants and GloSensor plasmids. After 24 h of transfection, the cells were dissociated with TrypLE™ Express Enzyme (1X) (Thermo Fisher Scientific) and collected by centrifugation at 500 × g for 5 min. Then the collected cells were suspended in Hank’s balanced salt solution [HBSS (Thermo Fisher Scientific)] supplemented with […] (YEASEN), and then the suspension cells were seeded into 96-well plates with 90 μl/well. After incubating at room temperature for 40 min, 5 μM forskolin and ligands diluted in HBSS were added to each well and the plates were incubated at room temperature for 15 min. […] were measured using the Synergy H1 microplate reader (BioTek) and the data presented are means of at least three independent experiments."}, "[7]": {"tested_on": "acromegalic patients", "details": "cited from earlier work", "from_the_text": "Somatostatin receptors (SSTRs) are members of the G protein-coupled receptor (GPCR) superfamily and contain five subtypes (SSTR1–5). SSTRs, especially SSTR2, are expressed at high levels in NETs and have emerged as important biomarkers[4],[6]. SSTRs and their endogenous ligands, somatostatin (SST) peptides, exert important physiological regulation of neuroendocrine functions. […] However, the use of SST for disease treatment is li ... || SSTR2 transmits extracellular signals into cells through Gαi/o coupling and β-arrestin recruitment pathways. cAMP inhibition causes decreased hormone secretion and cell proliferation[13],[14], while the β-arrestin recruitment results in subsequent receptor internalization thus influence the cell membrane distribution level and desensitization of SSTR2, which may lead to drug resistance and poor clinical curative effect[15]–[18]."}},
  "note": "Values joined by “and” are separate entries in the source; they are usually repeats but may differ in a detail not shown here. Equal entries are not always repeated. Where two headings read alike, the source gives them in different places.",
  "data": [
    {"compound": "N#Cc1cccc(-c2ccc3ncc(-c4cc(F)cc(F)c4)c(N4CCC(N)CC4)c3c2)c1O", "note": "[paltusotine]", "values": [
      {"measurement": "Span", "setting": "[1]", "result": "81 and 79.63 and 75.68"},
      {"measurement": "Top", "setting": "[1]", "result": "82.51 and 80.87 and 82.26"},
      {"measurement": "EC50", "setting": "[2]", "result": "309 ± 6.3", "unit": "nM"},
      {"measurement": "Emax", "setting": "[2]; HEK293", "result": "65.5 ± 6.4", "unit": "%"},
      {"measurement": "Fold of WT", "setting": "[2]; Suppl. Table 4, SSTR3 F296(7.35)D", "result": 4.84},
      {"measurement": "Bottom", "setting": "[2]; best-fit, SSTR3 F296D-1", "result": 5.089},
      {"measurement": "LogEC50", "setting": "[2]; best-fit, SSTR3 F296D-1", "result": -6.01},
      {"measurement": "Span", "setting": "[2]; best-fit, SSTR3 F296D-1", "result": 99.77},
      {"measurement": "Top", "setting": "[2]; best-fit, SSTR3 F296D-1", "result": 104.9},
      {"measurement": "EC50", "setting": "[2]; best-fit, SSTR3 F296D-1, read-out: EC50", "result": 978, "unit": "nM"},
      {"measurement": "Bottom", "setting": "[2]; best-fit, SSTR3 F296D-2", "result": 18.98},
      {"measurement": "LogEC50", "setting": "[2]; best-fit, SSTR3 F296D-2", "result": -6.627},
      {"measurement": "Span", "setting": "[2]; best-fit, SSTR3 F296D-2", "result": 120},
      {"measurement": "Top", "setting": "[2]; best-fit, SSTR3 F296D-2", "result": 139},
      {"measurement": "EC50", "setting": "[2]; best-fit, SSTR3 F296D-2, read-out: EC50", "result": 236, "unit": "nM"},
      {"measurement": "Bottom", "setting": "[2]; best-fit, SSTR3 F296D-3", "result": 12.18},
      {"measurement": "LogEC50", "setting": "[2]; best-fit, SSTR3 F296D-3", "result": -6.94},
      {"measurement": "Span", "setting": "[2]; best-fit, SSTR3 F296D-3", "result": 133.1},
      {"measurement": "Top", "setting": "[2]; best-fit, SSTR3 F296D-3", "result": 145.3},
      {"measurement": "EC50", "setting": "[2]; best-fit, SSTR3 F296D-3, read-out: EC50", "result": 115, "unit": "nM"},
      {"measurement": "Emax", "setting": "[3]; HEK293, Suppl. Table 4, SSTR3 M193(45.52)I, n=3", "result": "38.8 ± 17.4", "unit": "%"},
      {"measurement": "Fold of WT", "setting": "[3]; Suppl. Table 4, SSTR3 M193(45.52)I", "result": 2.89},
      {"measurement": "EC50", "setting": "[3]; Suppl. Table 4, SSTR3 M193(45.52)I, n=3", "result": "184 ± 6.02", "unit": "nM"},
      {"measurement": "Bottom", "setting": "[3]; best-fit, SSTR3 M193I-1", "result": -5.898},
      {"measurement": "EC50", "setting": "[3]; best-fit, SSTR3 M193I-1", "result": 590, "unit": "nM"},
      {"measurement": "LogEC50", "setting": "[3]; best-fit, SSTR3 M193I-1", "result": -6.229},
      {"measurement": "Span", "setting": "[3]; best-fit, SSTR3 M193I-1", "result": 76.32},
      {"measurement": "Top", "setting": "[3]; best-fit, SSTR3 M193I-1", "result": 70.42},
      {"measurement": "Bottom", "setting": "[3]; best-fit, SSTR3 M193I-2", "result": 0.4332},
      {"measurement": "LogEC50", "setting": "[3]; best-fit, SSTR3 M193I-2", "result": "~ -3.924"},
      {"measurement": "Span", "setting": "[3]; best-fit, SSTR3 M193I-2", "result": "~ 6676"},
      {"measurement": "Top", "setting": "[3]; best-fit, SSTR3 M193I-2", "result": "~ 6677"},
      {"measurement": "Bottom", "setting": "[3]; best-fit, SSTR3 M193I-3", "result": 0.4332},
      {"measurement": "LogEC50", "setting": "[3]; best-fit, SSTR3 M193I-3", "result": "~ -3.924"},
      {"measurement": "Span", "setting": "[3]; best-fit, SSTR3 M193I-3", "result": "~ 6676"},
      {"measurement": "Top", "setting": "[3]; best-fit, SSTR3 M193I-3", "result": "~ 6677"},
      {"measurement": "EC50", "setting": "[4]", "result": 97.8, "unit": "nM"},
      {"measurement": "Top", "setting": "[4]; SSTR3 N101V-1", "result": 184},
      {"measurement": "Top", "setting": "[4]; SSTR3 N101V-2", "result": 142.6},
      {"measurement": "Top", "setting": "[4]; SSTR3 N101V-3", "result": 142.6},
      {"measurement": "Receptor activation of mutants", "setting": "[5]", "result": "increased paltusotine-induced SSTR3 activation"},
      {"measurement": "Span", "setting": "[6]", "result": "112.7 and 91.59 and 139.6"},
      {"measurement": "Top", "setting": "[6]", "result": "112.9 and 105.5 and 122.9"}
    ]},
    {"compound": "C[C@@H](O)[C@@H]1NC(=O)[C@H](CCCCN)NC(=O)[C@@H](Cc2c[nH]c3ccccc23)NC(=O)[C@H](Cc2ccccc2)NC(=O)[C@@H](NC(=O)[C@H](N)Cc2ccccc2)CSSC[C@@H](C(=O)N[C@H](CO)[C@@H](C)O)NC1=O", "note": "[octreotide]", "values": [
      {"measurement": "Acromegalic patients who do not respond well", "setting": "[7]", "result": "~ 30%"},
      {"measurement": "SSTR2 expression level during administration", "setting": "[7]", "result": "down-regulated"}
    ]}
  ]
}
